Values after ≈ are worked out from the molar mass of the structure shown.
Assays:
Enterococcus faecalis [1] = assay: Minimum inhibitory activity against Enterococcus faecalis GC 2242 (VRE); assay type: functional
[2] = Minimum inhibitory activity in presence of 4% bovine serum albumin against Streptococcus pneumoniae GC1894 (PRSP); assay type: functional
Staphylococcus aureus [3] = assay: Minimum inhibitory activity against Staphylococcus aureus GC 2216 (ATCC); assay type: functional
[4] = target: T1, UDP-N-acetylmuramoylalanine--D-glutamate ligase (Staphylococcus aureus, UniProt P0A091); assay: In vitro inhibitory activity against Staphylococcus aureus UDP-N-acetylmuramoyl-L-alanyl-D-glutamate synthetase
T1 sequence (P0A091 whole entry): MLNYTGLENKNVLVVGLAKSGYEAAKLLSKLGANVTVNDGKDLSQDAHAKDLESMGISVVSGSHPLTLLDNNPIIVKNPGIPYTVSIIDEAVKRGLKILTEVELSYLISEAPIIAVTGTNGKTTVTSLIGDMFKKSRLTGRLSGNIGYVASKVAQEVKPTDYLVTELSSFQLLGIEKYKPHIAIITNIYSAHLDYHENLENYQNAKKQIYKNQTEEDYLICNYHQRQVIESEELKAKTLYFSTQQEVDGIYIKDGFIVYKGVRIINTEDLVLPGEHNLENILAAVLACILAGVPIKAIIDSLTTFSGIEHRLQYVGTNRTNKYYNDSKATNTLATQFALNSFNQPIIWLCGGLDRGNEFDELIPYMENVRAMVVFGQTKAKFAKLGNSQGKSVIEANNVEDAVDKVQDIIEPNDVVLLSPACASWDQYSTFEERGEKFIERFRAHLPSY

[5] = Minimum inhibitory activity against Streptococcus pneumoniae GC1894 (PRSP); assay type: functional
Enterococcus faecalis [6] = assay: Minimum inhibitory activity against Enterococcus faecalis GC 4555 (ATCC); assay type: functional
[7] = target: T2, UDP-N-acetylenolpyruvoylglucosamine reductase (Staphylococcus aureus, UniProt P61431); assay: In vitro inhibitory activity against Staphylococcus aureus UDP-N-acetylmuramate dehydrogenase
T2 sequence (P61431 whole entry): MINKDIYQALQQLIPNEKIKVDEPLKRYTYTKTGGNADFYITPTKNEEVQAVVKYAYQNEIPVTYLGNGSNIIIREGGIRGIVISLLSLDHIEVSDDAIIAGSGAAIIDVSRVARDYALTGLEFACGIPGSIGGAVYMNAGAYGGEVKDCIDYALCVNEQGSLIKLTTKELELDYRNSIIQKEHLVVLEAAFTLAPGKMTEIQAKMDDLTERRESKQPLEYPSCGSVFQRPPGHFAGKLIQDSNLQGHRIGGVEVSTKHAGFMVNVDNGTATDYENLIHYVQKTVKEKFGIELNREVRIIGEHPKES

Staphylococcus aureus [8] = assay: Minimum inhibitory activity against Staphylococcus aureus GC 4543 (MSSA); assay type: functional
[9] = target: T3, UDP-N-acetylmuramate--L-alanine ligase (Staphylococcus aureus, UniProt O31211); assay: In vitro inhibitory activity against Staphylococcus aureus UDP-N-acetylmuramoyl-L-alanine synthetase
T3 sequence (O31211 whole entry): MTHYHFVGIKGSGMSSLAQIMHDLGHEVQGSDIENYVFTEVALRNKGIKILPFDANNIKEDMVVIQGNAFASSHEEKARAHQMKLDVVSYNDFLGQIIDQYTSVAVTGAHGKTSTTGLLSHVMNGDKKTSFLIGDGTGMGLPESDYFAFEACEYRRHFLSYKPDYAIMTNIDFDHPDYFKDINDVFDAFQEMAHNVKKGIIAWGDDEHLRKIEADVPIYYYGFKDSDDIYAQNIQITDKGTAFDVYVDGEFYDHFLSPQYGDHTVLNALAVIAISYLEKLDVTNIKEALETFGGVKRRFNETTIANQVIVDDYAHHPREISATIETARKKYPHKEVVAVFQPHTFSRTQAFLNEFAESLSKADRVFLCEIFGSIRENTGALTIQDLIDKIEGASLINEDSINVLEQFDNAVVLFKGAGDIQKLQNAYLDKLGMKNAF

Escherichia coli [10] = assay: Minimum inhibitory activity against Escherichia coli GC 4559; assay type: functional
Escherichia coli [11] = assay: Minimum inhibitory activity against Escherichia coli GC 4560; assay type: functional
[12] = Minimum inhibitory activity against MSCNS GC 646; assay type: functional
Staphylococcus aureus [13] = assay: Minimum inhibitory activity against Staphylococcus aureus GC 1131 (MRSA); assay type: functional
Bacteria = assay: Minimum inhibitory activity against gram negative bacteria; assay type: functional
[14] = Partition coefficient (logP); assay type: physicochemical; details: octanol/water

MIC (Enterococcus faecalis [1]) [µg/mL]	MIC [2] [µg/mL]	MIC (Staphylococcus aureus [3]) [µg/mL]	IC50 [4] [µM]	MIC [5] [µg/mL]	MIC (Enterococcus faecalis [6]) [µg/mL]	IC50 [7] [µM]	MIC (Staphylococcus aureus [8]) [µg/mL]	IC50 [9] [µM]	MIC (Escherichia coli [10]) [µg/mL]	MIC (Escherichia coli [11]) [µg/mL]	MIC ([12]; Staphylococcus) [µg/mL]	MIC (Staphylococcus aureus [13]) [µg/mL]	MIC (Bacteria) [µg/mL]	logP [14]	MIC [12] [µg/mL]	Compound
> 128	> 128	> 128	> 91.1	64 (≈ 233 µM)	> 128	> 91.1	128 (≈ 466 µM)	> 91.1	> 128	> 128	> 128	> 128	–	–	–	CC(C)(C)c1ccc(-n2nc3c(c2O)SCC3)cc1
8 (≈ 33.9 µM)	> 128	2 (≈ 8.46 µM)	> 106	2 (≈ 8.46 µM)	8 (≈ 33.9 µM)	50.8	4 (≈ 16.9 µM)	> 106	> 128	32 (≈ 135 µM)	0.25 (≈ 1.06 µM)	2 (≈ 8.46 µM)	–	–	–	Oc1c2c(nn1-c1ccc(F)cc1)CCS2
8 (≈ 27.9 µM)	> 128	2 (≈ 6.99 µM)	43	0.5 (≈ 1.75 µM)	16 (≈ 55.9 µM)	38.4	1 (≈ 3.49 µM)	> 87.3	> 128	128 (≈ 447 µM)	4 (≈ 14 µM)	8 (≈ 27.9 µM)	–	–	–	Oc1c2c(nn1-c1ccc(C(F)(F)F)cc1)CCS2
32 (≈ 108 µM)	> 128	2 (≈ 6.73 µM)	30.3	1 (≈ 3.36 µM)	16 (≈ 53.8 µM)	12.1	4 (≈ 13.5 µM)	38.4	> 128	> 128	1 (≈ 3.36 µM)	16 (≈ 53.8 µM)	–	–	–	Oc1c2c(nn1-c1ccc(Br)cc1)CCS2
64 (≈ 223 µM)	> 128	8 (≈ 27.9 µM)	48.8	4 (≈ 13.9 µM)	128 (≈ 446 µM)	38.3	8 (≈ 27.9 µM)	24.4	> 128	128 (≈ 446 µM)	16 (≈ 55.7 µM)	32 (≈ 111 µM)	–	3.62	–	Oc1c2c(nn1-c1ccc(Cl)c(Cl)c1)CCS2
16 (≈ 45.2 µM)	> 128	32 (≈ 90.3 µM)	> 70.6	2 (≈ 5.65 µM)	32 (≈ 90.3 µM)	> 70.6	32 (≈ 90.3 µM)	> 70.6	> 128	> 128	> 128	32 (≈ 90.3 µM)	–	–	–	Oc1c2c(nn1-c1cc(C(F)(F)F)cc(C(F)(F)F)c1)CCS2

More lines, now with the values behind:

Compound	MIC (Enterococcus faecalis [1]) [µg/mL]	MIC [2] [µg/mL]	MIC (Staphylococcus aureus [3]) [µg/mL]	IC50 [4] [µM]	MIC [5] [µg/mL]	MIC (Enterococcus faecalis [6]) [µg/mL]	IC50 [7] [µM]	MIC (Staphylococcus aureus [8]) [µg/mL]	IC50 [9] [µM]	MIC (Escherichia coli [10]) [µg/mL]	MIC (Escherichia coli [11]) [µg/mL]	MIC ([12]; Staphylococcus) [µg/mL]	MIC (Staphylococcus aureus [13]) [µg/mL]	MIC (Bacteria) [µg/mL]	logP [14]	MIC [12] [µg/mL]
Oc1c2c(nn1-c1ccc(Cl)c(Cl)c1)CCCC2	–	–	–	–	–	–	> 88.3	–	–	–	–	–	–	> 128	–	–
Oc1c2c(nn1-c1ccccc1C(F)(F)F)CCS2	16 (≈ 55.9 µM)	> 128	32 (≈ 112 µM)	> 87.3	8 (≈ 27.9 µM)	32 (≈ 112 µM)	> 87.3	32 (≈ 112 µM)	> 87.3	> 128	128 (≈ 447 µM)	64 (≈ 224 µM)	32 (≈ 112 µM)	–	–	–
CC1Cc2nn(-c3ccc(Cl)cc3)c(O)c2S1 (configuration not stated)	2 (≈ 7.5 µM)	> 128	32 (≈ 120 µM)	64.1	4 (≈ 15 µM)	32 (≈ 120 µM)	> 93.7	16 (≈ 60 µM)	> 93.7	> 128	> 128	16 (≈ 60 µM)	16 (≈ 60 µM)	–	–	–
Oc1c2c(nn1-c1ccccc1)CCS2	4 (≈ 18.3 µM)	> 128	16 (≈ 73.3 µM)	94.8	4 (≈ 18.3 µM)	32 (≈ 147 µM)	> 115	32 (≈ 147 µM)	> 115	> 128	> 128	–	16 (≈ 73.3 µM)	–	–	16 (≈ 73.3 µM)
O=[N+]([O-])c1ccc(-n2nc3c(c2O)CSCC3)cc1	–	–	–	–	–	–	> 90.2	–	–	–	–	–	–	> 128	–	–
CN[C@H](CC(C)C)C(=O)N[C@H]1C(=O)N[C@@H](CC(N)=O)C(=O)N[C@H]2C(=O)N[C@H]3C(=O)N[C@H](C(=O)N[C@H](C(=O)O)c4cc(O)cc(O)c4-c4cc3ccc4O)[C@H](O)c3ccc(c(Cl)c3)Oc3cc2cc(c3O[C@@H]2O[C@H](CO)[C@@H](O)[C@H](O)[C@H]2O[C@H]2C[C@](C)(N)[C@H](O)[C@H](C)O2)Oc2ccc(cc2Cl)[C@H]1O [VANCOMYCIN]	> 128	–	–	–	< 0.12	2 (≈ 1.38 µM)	–	–	–	> 128	0.25 (≈ 0.173 µM)	–	–	–	–	–

— ChEMBL document CHEMBL1136141, “2-Phenyl-5,6-dihydro-2H-thieno[3,2-c]pyrazol-3-ol derivatives as new inhibitors of bacterial cell wall biosynthesis” (Bioorg Med Chem Lett, 2003)
